According to publication PMC6429585, “Synthesis, Microtubule-Binding Affinity, and Antiproliferative Activity of New Epothilone Analogs and of an EGFR-Targeted Epothilone-Peptide Conjugate” (International Journal of Molecular Sciences, 2019):
Like-named read-outs stand apart in the source and are kept apart here.

How the values were obtained:
SW480 cells = test: cells; format: cell-based, human; conditions: Homo sapiens, read-out: IC50 SW480
Protocol: (§1) Experiments were performed in RPMI (SW480 cells) or DMEM (HEK293 and A431 cells) medium (Gibco) supplemented with 2 mM glutamine, 10% fetal bovine serum, 100 IU/mL penicillin, 100 µg/mL streptomycin, and 1 µg/mL amphotericin B (all from Sigma) at 37 °C and 5% CO2. Cells were seeded into 96-well microtiter plates and compounds were added in DMSO in serial dilutions in triplicate. The final DMSO (dimethylsulfoxide) concentration was 0.1%. After 72 h, a WST-1 reagent was added and the absorption was measured at 450 nm with a plate reader after 30 min to 4 h. The percentage of viable cells was calculated based on vehicle-treated cells and was plotted in GraphPadPrism. At least three independent experiments were performed.
(§2) A431 cells were obtained from CLS. The other cell lines were available in the laboratory. WST-1 was purchased from Roche.

A431 cells = test: cells; format: cell-based, human; conditions: Homo sapiens, read-out: IC50 A431
Protocol: as §1, §2

HEK293 cells = test: cells; format: cell-based, human; conditions: Homo sapiens, read-out: IC50 HEK293
Protocol: as §1, §2

[1] = molecular target: glutaraldehyde-stabilized microtubules (paclitaxel binding site); test: Microtubule binding affinity by displacement of Flutax-2 (fluorescence anisotropy); design: species or system calf
Protocol: The binding affinity of epothilone analogs 1, 14, and 16 and of targeted conjugate 4 for microtubules was determined as previously described by Díaz and co-workers, using partly cross-linked microtubules and determining the changes in fluorescence anisotropy upon displacement of the fluorescent taxol derivative Flutax-2 [42, 43] (Figure S3).
Purified calf-brain tubulin and chemicals were obtained as previously described. Stabilized, moderately crosslinked microtubules were prepared as reported in [42]. Binding constants of azathilones to stabilized microtubules were measured as previously described by Buey et al.. For details of the experimental procedures and Flutax-2 displacement curves cf. Section SI.3 of the Supplementary Materials.
SI.3. Disulfide cleavage asssay
Figure S2. […]
60 mg of frozen tubulin were thawed and loaded on a Sephadex G-25 column pre-equilibrated with cold 1 mM EGTA, 3.4 M glycerol, 10 mM sodium phosphate pH 6.8 buffer supplemented with 0.1 mM GTP. […] Fractions were collected and analyzed by spectrophotometry at 295 nm on a Thermo Evolution 300LC device. […] The tubulin concentration of the supernatant was determined by spectrophotometry at a 1:20 dilution of 10 mM sodium phosphate buffer containing 1%
SDS. The concentration was calculated with an extinction coefficient of 107’000 M-1cm-1 at 276 nm. […]
The concentration was measured spectrophotometrically as previously. […]

EGFR = conditions: read-out: IC50 for displacement of [^125I]-EGF from the EGFR; cited from earlier work
[2] = test system: cross-linked stabilized microtubules; design: method as in earlier work; conditions: cited from earlier work
EGFR (Homo sapiens) = EGFR (Homo sapiens) (UniProt P00533); test: SPR; conditions: cited from earlier work
[3] = molecular target: stabilized, moderately crosslinked microtubules (calf-brain tubulin) (calf (endogenous in calf brain)) (UniProt Q6B856); test: fluorescence polarisation; displacement of the fluorescent taxol derivative Flutax-2 from glutaraldehyde-stabilized, partly cross-linked microtubules, read by change in fluorescence anisotropy; 35 °C; association constant Kb

Question: Which results are given for `C/C(=C\c1csc(C)n1)[C@@H]1C[C@@H]2O[C@@H]2CCC[C@H](C)[C@H](O)[C@@H](C)C(=O)C(C)(C)[C@@H](O)CC(=O)O1` [Epo A, Epothilone A]?
Answer: IC50 (SW480 cells; SW480, 72 h): 0.0145 ± 0.00109 µM; IC50 (A431 cells; A-431, 72 h): 0.00294 ± 0.0003 µM; IC50 (HEK293 cells; HEK293, 72 h): 0.00271 ± 0.00062 µM

Question: Which IC50 (SW480 cells; SW480, 72 h) does the source give for `Cc1nc2cc([C@@H]3C[C@@H]4C[C@H]4CCC[C@H](C)[C@H](O)[C@@H](C)C(=O)C(C)(C)CCC(=O)O3)ccc2n1CCO` [compound 1, (1S,3S,10R,11S,12S,16R)-11-Hydroxy-3-(1-(2-hydroxyethyl)-2-methyl-1H-benzo[d]imidazol-5-yl)-8,8,10,12-tetramethyl-4-oxabicyclo[14.1.0] heptadecane-5,9-dione] here?
Answer: 0.0176 ± 0.0035 µM

Question: What about the IC50 (A431 cells; A-431, 72 h) of the same molecule?
Answer: 0.00332 ± 0.0006 µM

Question: And the IC50 (HEK293 cells; HEK293, 72 h)?
Answer: 0.00087 ± 0.00013 µM

Question: With `CC(=O)SCCn1c(C)nc2cc([C@@H]3C[C@@H]4C[C@H]4CCC[C@H](C)[C@H](O)[C@@H](C)C(=O)C(C)(C)CCC(=O)O3)ccc21` [compound 14, S-(2-(5-((1S,3S,10R,11S,12S,16R)-11-Hydroxy-8,8,10,12-tetramethyl-5,9-dioxo-4-oxabicyclo[14.1.0]heptadecan-3-yl)-2-methyl-1H-benzo[d]imidazol-1-yl)ethyl) ethanethioate] as the molecule, how does the “Kb lower compared to 1” value ([1]; ratio of microtubule-binding affinity versus analog 1) read?
Answer: > 10 fold

Question: What does the source list for `Cc1nc2cc([C@@H]3C[C@@H]4C[C@H]4CCC[C@H](C)[C@H](O)[C@@H](C)C(=O)C(C)(C)CCC(=O)O3)ccc2n1CCSSCCn1c(C)nc2cc([C@@H]3C[C@@H]4C[C@H]4CCC[C@H](C)[C@H](O)[C@@H](C)C(=O)C(C)(C)CCC(=O)O3)ccc21` [compound 16, Dimer of (1S,3S,10R,11S,12S,16R)-11-hydroxy-3-(1-(2-mercaptoethyl)-2-methyl-1H-benzo[d]imidazol-5-yl)-8,8,10,12-tetramethyl-4-oxabicyclo[14.1.0]heptadecane-5,9-dione]?
Answer: IC50 (SW480 cells; SW480, 72 h incubation, mean of three experiments ± SD): 0.00891 ± 0.00126 µM; IC50 (A431 cells; A-431, 72 h incubation, mean of three experiments ± SD): 0.00837 ± 0.00081 µM; IC50 (HEK293 cells; HEK293, 72 h incubation, mean of three experiments ± SD): 0.00208 ± 0.00053 µM

Question: For “CysCE11: GE11 peptide with a Cys residue added to the N-terminus; custom-made by Biosyntan (CYHWYGYTPQNVI) [reference compound]”, which “microtubule binding (in words)” value [1] is on record?
Answer: no relevant microtubule binding

Question: For “EGF: epidermal growth factor, natural EGFR ligand”, which IC50 (EGFR) is on record?
Answer: 0.0051 µM

Question: Which “Flutax-2 Ka” value ([2]; 26 °C) does the source give for Flutax-2 here?
Answer: 6.5 107 M-1

Question: What about the “Flutax-2 Ka” value ([2]; 27 °C) of the same molecule?
Answer: 5.9 107 M-1

Question: What about the “Flutax-2 Ka” value ([2]; 30 °C) of the same molecule?
Answer: 4.6 107 M-1

Question: What about the “Flutax-2 Ka” value ([2]; 32 °C) of the same molecule?
Answer: 4.2 107 M-1

Question: And the “Flutax-2 Ka” value ([2]; 35 °C)?
Answer: 3.0 107 M-1

Question: And the “Flutax-2 Ka” value ([2]; 37 °C)?
Answer: 2.2 107 M-1

Question: And the “Flutax-2 Ka” value ([2]; 40 °C)?
Answer: 2.0 107 M-1

Question: What about the “Flutax-2 Ka” value ([2]; 42 °C) of the same molecule?
Answer: 1.8 107 M-1

Question: For GE11 peptide, which Kd (EGFR (Homo sapiens)) is on record?
Answer: 459 µM

Question: For “GE11: 12-amino acid residue peptide of the sequence YHWYGYTPQNVI, reported to bind to EGFR [reference compound]”, which IC50 (EGFR) is on record?
Answer: > 1000 µM

B1: epothilone-GE11 conjugate 4 (peptide)
peptide: CYHWYGYTPQNVI
modifications: side chain of the N-terminal Cys disulfide-linked to the thiol-containing epothilone analog 2; C-terminal amide (by the systematic name of 4)
Question: Which Ka [3] does the source give for B1 here?
Answer: 9.3e+06 M⁻¹

B2: Cys-GE11 peptide (peptide)
peptide: CYHWYGYTPQNVI
Question: With B2 as the molecule, how does the Ka [3] read?
Answer: 50000 M⁻¹
